Experiments:
kainate = assay: Binding kainate (ag); set-up: species or system rat
Method: (§1) Radioligand binding assay methods utilized to measure the activity of compounds of the invention will be familiar to those skilled in the art. In each assay case, the assay components such as, for example, the cell-type, ligand, reference compound and the like, will be familiar to practitioners of such an assay.
(§2) Analysis and Expression of Results: Compounds of the invention were tested in the biochemical assays and percent inhibition of specific binding was determined. The specific ligand binding to the receptors is defined as the difference between the total binding and the nonspecific binding determined in the presence of an excess of unlabelled ligand. The results are expressed as a percent inhibition of control specific binding (100−((measured specific binding/control specific binding)×100)) obtained in the presence of test compounds.

[1] = target: T1, Corticotropin Releasing Factor CRF1 (h) (Homo sapiens, UniProt P34998); assay: Binding CRF1 (h) (ag); conditions: read-out: % Inhibition of Control Specific Binding @ 10 μM
T1 construct: expressed in transfected cells; host or cells: CHO cells
T1 sequence (P34998 24-415): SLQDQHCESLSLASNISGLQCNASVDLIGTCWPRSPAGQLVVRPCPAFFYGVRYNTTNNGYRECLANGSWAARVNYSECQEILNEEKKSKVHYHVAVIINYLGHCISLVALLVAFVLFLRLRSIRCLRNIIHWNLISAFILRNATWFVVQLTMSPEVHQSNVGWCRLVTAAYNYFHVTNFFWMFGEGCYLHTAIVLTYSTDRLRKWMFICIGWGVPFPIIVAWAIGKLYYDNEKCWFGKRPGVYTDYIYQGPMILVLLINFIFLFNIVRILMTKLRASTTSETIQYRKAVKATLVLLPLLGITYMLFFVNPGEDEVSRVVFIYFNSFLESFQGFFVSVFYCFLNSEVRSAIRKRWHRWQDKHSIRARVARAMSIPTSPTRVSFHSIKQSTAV
Method: as §1, §2

Cannabinoid CB1 (h) = target: T2, Cannabinoid CB1 (h) (Homo sapiens, UniProt P21554); assay: Binding CB1 (h) (ag); conditions: read-out: % Inhibition of Control Specific Binding @ 10 μM
T2 construct: expressed in transfected cells; host or cells: CHO cells
Method: as §1, §2

Glucocorticoid GR (h) = target: T3, Glucocorticoid GR (h) (Homo sapiens, UniProt P04150); assay: Binding GR (h) (ag); conditions: read-out: % Inhibition of Control Specific Binding @ 10 μM
T3 construct: IM-9 cells (cytosol); endogenous in cells; host or cells: IM-9 cells (cytosol)
T3 sequence (P04150 1-777): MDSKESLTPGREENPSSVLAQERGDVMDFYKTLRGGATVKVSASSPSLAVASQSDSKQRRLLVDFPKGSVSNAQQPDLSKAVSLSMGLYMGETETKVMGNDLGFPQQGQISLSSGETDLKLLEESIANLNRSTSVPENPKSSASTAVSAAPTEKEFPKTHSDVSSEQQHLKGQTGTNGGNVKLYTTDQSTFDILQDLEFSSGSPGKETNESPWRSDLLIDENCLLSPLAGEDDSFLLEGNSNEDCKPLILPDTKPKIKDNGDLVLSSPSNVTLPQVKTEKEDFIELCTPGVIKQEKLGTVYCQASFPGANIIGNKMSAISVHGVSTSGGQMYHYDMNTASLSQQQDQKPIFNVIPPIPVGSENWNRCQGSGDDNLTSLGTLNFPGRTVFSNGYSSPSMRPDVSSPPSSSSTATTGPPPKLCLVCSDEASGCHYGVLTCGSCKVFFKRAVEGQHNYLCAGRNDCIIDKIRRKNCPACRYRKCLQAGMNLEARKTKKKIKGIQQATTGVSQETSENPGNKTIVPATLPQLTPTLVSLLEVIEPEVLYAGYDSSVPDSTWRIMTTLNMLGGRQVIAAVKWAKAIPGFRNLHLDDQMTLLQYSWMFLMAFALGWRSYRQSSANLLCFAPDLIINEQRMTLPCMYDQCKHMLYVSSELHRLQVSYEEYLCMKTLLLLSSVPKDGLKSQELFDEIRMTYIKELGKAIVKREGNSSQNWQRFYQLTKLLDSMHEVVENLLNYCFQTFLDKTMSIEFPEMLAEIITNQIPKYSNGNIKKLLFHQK
Method: as §1, §2

Neuropeptide Y (ns) = assay: Binding Y (ns) (ag); set-up: species or system rat
Method: as §1, §2

NOP (ORL1) (h) = target: T4, NOP (ORL1) (h) (Homo sapiens, UniProt P41146); assay: Binding NOP (ORL1) (h) (ag); conditions: read-out: % Inhibition of Control Specific Binding @ 10 μM
T4 construct: expressed in transfected cells; host or cells: HEK-293 cells
Method: as §1, §2

SKCa channel = assay: Binding SKCa channel (aa); set-up: species or system rat
Method: as §1, §2

5-HT transporter (h) = target: T5, 5-HT transporter (h) (Homo sapiens, UniProt P31645); assay: Binding 5-HT transporter (h) (aa); conditions: read-out: % Inhibition of Control Specific Binding @ 10 μM
T5 construct: expressed in transfected cells; host or cells: CHO cells
Method: as §1, §2

tyrosine hydroxylase = target: T6, tyrosine hydroxylase (Rattus norvegicus, UniProt P04177); assay: Enzyme assay tyrosine hydroxylase; assay type: biochemical; conditions: read-out: % Inhibition of Control Values @ 10 μM
T6 construct: rat striatum; from tissue; host or cells: rat striatum
Source text: (§3) The enzyme assays provided below will be familiar to those skilled in the art.
(§4) Analysis and Expression of Results: The results are expressed as a percent of control specific activity ((measured specific activity/control specific activity)×100) obtained in the presence of the test compounds.

NMDA = assay: Binding NMDA (aa); set-up: species or system rat
Method: as §1, §2

Adenosine A2A (h) = target: T7, Adenosine A2A (h) (Homo sapiens, UniProt P29274); assay: Binding A2A (h) (ag); conditions: read-out: % Inhibition of Control Specific Binding @ 10 μM
T7 construct: expressed in transfected cells; host or cells: HEK-293 cells
Method: as §1, §2

Dopamine D1 (h) = target: T8, Dopamine D1 (h) (Homo sapiens, UniProt P21728); assay: Binding D1 (h) (aa); conditions: read-out: % Inhibition of Control Specific Binding @ 10 μM
T8 construct: expressed in transfected cells; host or cells: CHO cells
Method: as §1, §2

β2 (h) = target: T9, β2 (h) (Homo sapiens, UniProt P07550); assay: Binding β2 (h) (ag); conditions: read-out: % Inhibition of Control Specific Binding @ 10 μM
T9 construct: expressed in transfected cells; host or cells: CHO cells
Method: as §1, §2

Progesterone PR (h) = assay: Binding PR (h) (ag); set-up: species or system human
Method: as §1, §2

PDE4D (h) = target: T10, PDE4D (h) (Homo sapiens, UniProt Q08499); assay: Enzyme assay PDE4D (h); assay type: biochemical; conditions: read-out: % Inhibition of Control Values @ 10 μM
T10 construct: host or cells: Sf9 cells
Source text: as §3, §4

5-HT (ns) = assay: Binding 5-HT (ns) (ag); set-up: species or system rat
Method: as §1, §2

PDE2A (h) = target: T11, PDE2A (h) (Homo sapiens, UniProt O00408); assay: Enzyme assay PDE2A (h); assay type: biochemical; conditions: read-out: % Inhibition of Control Values @ 10 μM
T11 construct: host or cells: Sf9 cells
Source text: as §3, §4

β1 (h) = target: T12, β1 (h) (Homo sapiens, UniProt P08588); assay: Binding β1 (h) (ag); conditions: read-out: % Inhibition of Control Specific Binding @ 10 μM
T12 construct: expressed in transfected cells; host or cells: HEK-293 cells
Method: as §1, §2

T6 sequence (P04177 whole entry): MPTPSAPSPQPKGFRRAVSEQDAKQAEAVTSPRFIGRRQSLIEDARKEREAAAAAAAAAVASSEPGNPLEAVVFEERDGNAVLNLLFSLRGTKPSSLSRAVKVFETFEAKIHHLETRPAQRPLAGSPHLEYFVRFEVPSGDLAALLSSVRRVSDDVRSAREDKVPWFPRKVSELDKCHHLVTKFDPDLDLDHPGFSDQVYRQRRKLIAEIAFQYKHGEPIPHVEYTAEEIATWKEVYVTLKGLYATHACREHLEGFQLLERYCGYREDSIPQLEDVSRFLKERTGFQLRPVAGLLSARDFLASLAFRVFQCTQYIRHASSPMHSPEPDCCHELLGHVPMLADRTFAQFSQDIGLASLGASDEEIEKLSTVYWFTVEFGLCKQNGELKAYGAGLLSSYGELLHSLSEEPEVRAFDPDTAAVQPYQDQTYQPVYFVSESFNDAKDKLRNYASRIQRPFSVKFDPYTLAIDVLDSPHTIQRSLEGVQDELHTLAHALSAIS
T5 sequence (P31645 whole entry): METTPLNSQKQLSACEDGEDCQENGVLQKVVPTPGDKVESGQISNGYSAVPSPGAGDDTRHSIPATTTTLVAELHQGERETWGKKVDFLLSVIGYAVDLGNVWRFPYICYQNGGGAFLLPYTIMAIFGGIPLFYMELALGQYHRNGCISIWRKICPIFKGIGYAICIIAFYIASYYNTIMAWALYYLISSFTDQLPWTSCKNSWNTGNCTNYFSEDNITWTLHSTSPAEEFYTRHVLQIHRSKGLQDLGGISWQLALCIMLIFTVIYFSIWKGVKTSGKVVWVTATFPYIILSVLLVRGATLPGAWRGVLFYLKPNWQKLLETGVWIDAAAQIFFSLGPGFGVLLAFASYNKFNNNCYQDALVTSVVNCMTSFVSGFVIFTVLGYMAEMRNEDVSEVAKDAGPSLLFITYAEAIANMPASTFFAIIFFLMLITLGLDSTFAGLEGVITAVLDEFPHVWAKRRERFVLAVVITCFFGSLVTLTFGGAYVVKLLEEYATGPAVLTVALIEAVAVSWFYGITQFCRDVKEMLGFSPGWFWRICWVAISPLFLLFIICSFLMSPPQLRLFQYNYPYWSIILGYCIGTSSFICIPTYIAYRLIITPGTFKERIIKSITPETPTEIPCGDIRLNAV
T2 sequence (P21554 whole entry): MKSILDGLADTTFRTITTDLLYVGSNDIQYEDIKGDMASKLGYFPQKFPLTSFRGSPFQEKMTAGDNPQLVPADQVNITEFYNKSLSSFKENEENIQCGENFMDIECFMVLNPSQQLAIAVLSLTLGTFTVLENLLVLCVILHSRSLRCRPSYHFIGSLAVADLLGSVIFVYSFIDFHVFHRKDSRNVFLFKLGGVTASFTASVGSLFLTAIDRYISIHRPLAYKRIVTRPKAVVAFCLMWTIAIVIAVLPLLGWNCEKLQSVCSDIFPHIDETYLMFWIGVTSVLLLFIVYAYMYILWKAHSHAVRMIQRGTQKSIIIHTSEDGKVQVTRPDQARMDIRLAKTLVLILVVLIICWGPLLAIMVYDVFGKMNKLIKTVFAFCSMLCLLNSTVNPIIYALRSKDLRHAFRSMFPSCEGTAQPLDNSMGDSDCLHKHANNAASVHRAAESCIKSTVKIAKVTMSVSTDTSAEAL
T4 sequence (P41146 whole entry): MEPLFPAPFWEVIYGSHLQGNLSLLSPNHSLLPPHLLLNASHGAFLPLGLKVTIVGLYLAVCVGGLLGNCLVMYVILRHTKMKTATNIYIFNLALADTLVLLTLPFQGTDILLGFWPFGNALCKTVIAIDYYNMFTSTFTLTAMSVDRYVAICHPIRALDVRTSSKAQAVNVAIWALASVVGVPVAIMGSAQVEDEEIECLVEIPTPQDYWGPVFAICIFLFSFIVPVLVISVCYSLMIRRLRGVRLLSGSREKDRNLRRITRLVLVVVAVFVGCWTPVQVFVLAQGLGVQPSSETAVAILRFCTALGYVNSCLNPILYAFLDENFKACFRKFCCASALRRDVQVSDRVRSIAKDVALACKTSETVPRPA
T11 sequence (O00408 whole entry): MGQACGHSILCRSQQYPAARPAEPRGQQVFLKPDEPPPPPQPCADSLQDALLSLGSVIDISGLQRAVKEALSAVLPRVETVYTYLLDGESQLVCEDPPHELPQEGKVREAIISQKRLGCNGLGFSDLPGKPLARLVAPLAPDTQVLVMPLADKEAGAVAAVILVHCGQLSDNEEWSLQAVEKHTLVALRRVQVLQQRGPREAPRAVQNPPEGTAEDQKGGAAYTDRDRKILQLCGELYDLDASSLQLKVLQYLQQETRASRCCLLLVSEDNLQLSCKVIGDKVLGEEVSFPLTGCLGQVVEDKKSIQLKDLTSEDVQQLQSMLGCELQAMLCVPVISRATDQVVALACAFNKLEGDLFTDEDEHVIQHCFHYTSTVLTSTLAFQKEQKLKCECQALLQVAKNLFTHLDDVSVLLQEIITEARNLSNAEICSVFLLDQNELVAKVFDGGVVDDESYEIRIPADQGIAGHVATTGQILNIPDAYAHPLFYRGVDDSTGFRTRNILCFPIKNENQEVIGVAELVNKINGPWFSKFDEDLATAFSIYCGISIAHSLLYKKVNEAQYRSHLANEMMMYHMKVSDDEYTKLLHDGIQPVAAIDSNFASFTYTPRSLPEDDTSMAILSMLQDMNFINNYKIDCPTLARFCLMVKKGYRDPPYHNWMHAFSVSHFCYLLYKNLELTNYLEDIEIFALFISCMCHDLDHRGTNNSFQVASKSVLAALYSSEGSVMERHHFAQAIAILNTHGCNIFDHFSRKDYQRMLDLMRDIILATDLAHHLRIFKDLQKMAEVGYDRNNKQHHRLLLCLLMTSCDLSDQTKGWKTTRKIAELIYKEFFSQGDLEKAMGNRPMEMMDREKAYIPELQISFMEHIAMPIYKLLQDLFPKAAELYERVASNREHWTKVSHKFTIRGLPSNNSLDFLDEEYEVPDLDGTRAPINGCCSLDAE
T10 sequence (Q08499 whole entry): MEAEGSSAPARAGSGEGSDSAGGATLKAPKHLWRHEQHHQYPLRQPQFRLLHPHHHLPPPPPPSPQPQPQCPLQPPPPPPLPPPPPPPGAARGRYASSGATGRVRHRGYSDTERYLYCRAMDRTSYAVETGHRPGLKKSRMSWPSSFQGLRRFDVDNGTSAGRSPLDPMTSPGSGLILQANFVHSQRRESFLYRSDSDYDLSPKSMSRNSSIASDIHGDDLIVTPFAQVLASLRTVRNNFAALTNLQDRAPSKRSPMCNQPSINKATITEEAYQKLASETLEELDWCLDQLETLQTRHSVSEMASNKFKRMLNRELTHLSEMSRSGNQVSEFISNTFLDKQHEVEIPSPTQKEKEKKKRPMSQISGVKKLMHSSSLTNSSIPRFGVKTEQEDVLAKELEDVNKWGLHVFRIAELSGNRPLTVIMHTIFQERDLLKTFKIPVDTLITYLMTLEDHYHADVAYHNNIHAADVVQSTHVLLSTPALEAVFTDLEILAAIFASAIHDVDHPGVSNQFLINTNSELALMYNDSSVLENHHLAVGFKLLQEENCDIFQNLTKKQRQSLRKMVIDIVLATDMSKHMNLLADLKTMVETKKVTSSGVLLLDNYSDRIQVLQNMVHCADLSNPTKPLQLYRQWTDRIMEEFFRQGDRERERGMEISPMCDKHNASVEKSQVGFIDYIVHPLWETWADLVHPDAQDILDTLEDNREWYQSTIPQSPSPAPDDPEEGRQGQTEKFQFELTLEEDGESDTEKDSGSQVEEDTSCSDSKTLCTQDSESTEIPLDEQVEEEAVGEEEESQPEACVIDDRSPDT
T12 sequence (P08588 whole entry): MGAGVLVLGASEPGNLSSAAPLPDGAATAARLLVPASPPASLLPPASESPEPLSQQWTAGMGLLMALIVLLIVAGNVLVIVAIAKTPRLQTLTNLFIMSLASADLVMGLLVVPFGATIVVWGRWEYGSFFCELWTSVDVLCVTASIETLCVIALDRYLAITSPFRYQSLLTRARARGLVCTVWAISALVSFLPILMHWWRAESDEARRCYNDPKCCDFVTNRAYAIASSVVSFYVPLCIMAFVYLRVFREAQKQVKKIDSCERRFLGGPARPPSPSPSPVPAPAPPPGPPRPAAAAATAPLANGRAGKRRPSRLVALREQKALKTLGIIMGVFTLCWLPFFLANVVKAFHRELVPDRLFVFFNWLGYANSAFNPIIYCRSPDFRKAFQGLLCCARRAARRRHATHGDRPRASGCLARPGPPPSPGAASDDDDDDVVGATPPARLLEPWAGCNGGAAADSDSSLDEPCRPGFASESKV
T8 sequence (P21728 whole entry): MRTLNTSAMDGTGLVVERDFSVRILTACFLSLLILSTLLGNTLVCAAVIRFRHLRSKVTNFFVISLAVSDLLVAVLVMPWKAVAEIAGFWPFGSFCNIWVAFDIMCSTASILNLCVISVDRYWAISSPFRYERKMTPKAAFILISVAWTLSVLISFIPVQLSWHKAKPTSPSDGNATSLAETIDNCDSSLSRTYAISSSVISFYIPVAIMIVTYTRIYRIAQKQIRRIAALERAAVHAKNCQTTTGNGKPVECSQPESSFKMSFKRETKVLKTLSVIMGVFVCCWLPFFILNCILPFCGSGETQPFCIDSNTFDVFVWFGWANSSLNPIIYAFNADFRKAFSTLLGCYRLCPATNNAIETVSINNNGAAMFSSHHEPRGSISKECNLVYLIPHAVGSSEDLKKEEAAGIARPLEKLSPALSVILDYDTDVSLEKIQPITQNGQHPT

SMILES | % Inhibition of Control Specific Binding @ 10 μM (kainate) [%] | inhibition at 10 µM [1] [%] | inhibition at 10 µM (Cannabinoid CB1 (h)) [%] | inhibition at 10 µM (Glucocorticoid GR (h)) [%] | % Inhibition of Control Specific Binding @ 10 μM (Neuropeptide Y (ns)) [%] | inhibition at 10 µM (NOP (ORL1) (h)) [%] | % Inhibition of Control Specific Binding @ 10 μM (SKCa channel) [%] | inhibition at 10 µM (5-HT transporter (h)) [%] | inhibition at 10 µM (tyrosine hydroxylase) [%] | % Inhibition of Control Specific Binding @ 10 μM (NMDA) [%] | inhibition at 10 µM (Adenosine A2A (h)) [%] | inhibition at 10 µM (Dopamine D1 (h)) [%] | inhibition at 10 µM (β2 (h)) [%] | % Inhibition of Control Specific Binding @ 10 μM (Progesterone PR (h)) [%] | inhibition at 10 µM (PDE4D (h)) [%] | % Inhibition of Control Specific Binding @ 10 μM (5-HT (ns)) [%] | inhibition at 10 µM (PDE2A (h)) [%] | inhibition at 10 µM (β1 (h)) [%]
CNC(=O)c1ccc(N2C(=O)N(c3ccc(C#N)c(C(F)(F)F)c3)C(=O)C2(C)C)cc1F [(MIV), 4-(3-(4-cyano-3-(trifluoromethyl)phenyl)-5,5-dimethyl-2,4-dioxoimidazolidin-1-yl)-2-fluoro-N-methylbenzamide] | −8 | -23 | 4 | 4 | −2 | -2 | −10 | 18 | -2 | −41 | 3 | -17 | -10 | 11 | -41 | 6 | 0 | 3
CC1(C)C(=O)N(c2ccc(C#N)c(C(F)(F)F)c2)C(=S)N1c1ccc(C(=O)O)c(F)c1 [(MI), 4-(3-(4-cyano-3-(trifluoromethyl)phenyl)-5,5-dimethyl-4-oxo-2-thioxoimidazolidin-1-yl)-2-fluorobenzoic acid] | −4 | -4 | -20 | 5 | −6 | -10 | −6 | 1 | -4 | 2 | 10 | -18 | 6 | 23 | 1 | 21 | 12 | -2
CC1(C)C(=O)N(c2ccc(C#N)c(C(F)(F)F)c2)C(=O)N1c1ccc(C(N)=O)c(F)c1 [(MIII), 4-(3-(4-cyano-3-(trifluoromethyl)phenyl)-5,5-dimethyl-2,4-dioxoimidazolidin-1-yl)-2-fluorobenzamide] | −10 | -9 | 6 | 0 | −2 | 0 | 1 | 13 | -2 | 0 | 2 | -17 | -6 | 8 | -11 | −12 | 2 | 2
CC1(C)C(=O)N(c2ccc(C#N)c(C(F)(F)F)c2)C(=S)N1c1ccc(C(N)=O)c(F)c1 [(MII), 4-(3-(4-Cyano-3-(trifluoromethyl)phenyl)-5,5-dimethyl-4-oxo-2-thioxoimidazolidin-1-yl)-2-fluorobenzamide] | −21 | 1 | 11 | 30 | −6 | -4 | 4 | 16 | 2 | 5 | -5 | -14 | -3 | 74 | -9 | 14 | 2 | -7

— patent publication US8524755B2 (priority 2009, dated 2013)
